Experimental data taken from US20150157022A1, “S[…] CONTROL AND IMPROVED CROP TOLERANCE FROM COMBINATIONS OF 2,4-D-CHOLINE AND G[…] 2,4-D- AND GLUFOSINATE-TOLERANT SOYBEANS, CORN, COTTON” (Dow AgroSciences LLC, priority 2013, published 2015).
Several values for one entry are separate records, joined by “and”; a condition that tells them apart may be missing. Equal values may be shown once. Where a name gives a salt, the structure may show the parent alone.

What was measured:
[1] = tested on: Amaranthus palmeri S. Wats. (Palmer amaranth, AMAPA); experiment: Field trial, post-emergence weed control (% visual control), AMAPA; type: in vivo
Description: (§1) These trials were conducted under field conditions in multiple states in the United States, including but not limited to Arkansas, Illinois, Indiana, Minnesota, Mississippi,
(§2) Nebraska, Ohio, Oklahoma, Texas, South Carolina and South Dakota. […] Treatments were applied with small plot backpack sprayers, using pressurized air or carbon dioxide (CO2) as propellant. Pressure varied from 22-50 pounds per square inch (psi), with spray tips typically of a Flat Fan type applying water diluent at 15 gallons per acre (GPA). Boom sizes varied from 6.3-10 ft in width. Treatments were applied to soybean, cotton, corn or fallow crop land. Weed sizes varied, but all treatments were applied as post-emergence treatments to weeds from 2 leaf to 2 tiller growth stages varying from 2 to 15 inches in height. The weed spectrum included, but was not limited to, Amaranthus palmeri S. Wats. (Palmer amaranth, AMAPA), Conyza canadensis (L.) Cronq. (horseweed, ERICA), Salsola tragus L. (Russian thistle, SASKR) and Sesbania exaltata (hemp sesbania, SEBEX).
(§3) The 2,4-D-choline salt formulation was a 456 g ae/L SL. […] All treatments were mixed in water at appropriate formulated product rates to achieve the desired rates as shown based on a unit area of application (hectare). Treatments were rated at 2 to 28 days after application (DAA) as compared to the untreated control plants. The trial sites had naturally occurring populations of weeds. The treated plots and control plots were rated blind at various intervals after application.
(§4) Colby's equation was used to determine the herbicidal effects expected from the mixtures (Colby, S. R. Calculation of the synergistic and antagonistic response of herbicide combinations. Weeds 1967, 15, 20-22). A t-test (alpha=0.05) between Colby predictions and observed combinations was used to test for significant differences indicating synergy or antagonism using replicate data.
(§5) The following equation was used to calculate the expected activity of mixtures containing two active ingredients, A and B:
(§6) Expected=A+B−(A×B/100) • A=observed efficacy of active ingredient A at the same concentration as used in the mixture; • B=observed efficacy of active ingredient B at the same concentration as used in the mixture.

[2] = tested on: Salsola tragus L. (Russian thistle, SASKR); experiment: Field trial, post-emergence weed control (% visual control), SASKR; type: in vivo
Description: as §1, §2, §3, §4, §5, §6

AAD12 Soybean (GLXMA) = experiment: Field crop tolerance trial in 2,4-D- and glufosinate-tolerant soybean (% visual injury, chlorosis, growth inhibition)
Description: as §1, §2
2,4-D- and glufosinate-tolerant soybeans, corn and cotton and optionally a glyphosate trait in a breeding (CP4 EPSPS) or a molecular stack (2mEPSPS) were used in all tolerance trials.
The 2,4-D-choline salt formulation was a 456 g ae/L SL. […] All treatments were mixed in water at appropriate formulated product rates to achieve the desired rates as shown based on a unit area of application (hectare). Treatments were rated at 2 to 28 days after application (DAA) as compared to the untreated control plants. The trial sites had naturally occurring populations of weeds. The treated plots and control plots were rated blind at various intervals after application. […]

[3] = tested on: Sesbania exaltata (hemp sesbania, SEBEX); experiment: Field trial, post-emergence weed control (% visual control), SEBEX; type: in vivo
Description: as §1, §2, §3, §4, §5, §6

[4] = tested on: Conyza canadensis (L.) Cronq. (horseweed, ERICA); experiment: Field trial, post-emergence weed control (% visual control), ERICA; type: in vivo
Description: as §1, §2, §3, §4, §5, §6

O=C(O)COc1ccc(Cl)cc1Cl [2,4-D-Choline salt, 2-hydroxy-N,N,N-trimethylethanaminium 2-(2,4-dichlorophenoxy)acetate]
Mean % weed control ([1]; 7 DAA, 800 g ae/ha): 47.5%
Mean % weed control ([1]; 10 DAA, 1065 g ae/ha): 55.0%
Mean % weed control ([1]; 13 DAA, 1065 g ae/ha): 45.0%
Mean % weed control ([1]; 16 DAA, 800 g ae/ha): 62.5%
Mean % weed control ([1]; 21 DAA, 1065 g ae/ha): 38.8%
Mean % weed control ([1]; 22 DAA, 800 g ae/ha): 48.8%
Mean % weed control ([2]; 14 DAA, 1065 g ae/ha): 67.5%
Mean % weed control ([2]; 21 DAA, 1065 g ae/ha): 65.0%
Mean % crop chlorosis (AAD12 Soybean (GLXMA); 2 DAA, 2130 g ae/ha): 0.0% and 2.3%
Mean % crop injury (AAD12 Soybean (GLXMA); 2 DAA, 2130 g ae/ha): 3.5% and 5.0%
Mean % crop chlorosis (AAD12 Soybean (GLXMA); 3 DAA, 1065 g ae/ha): 0.0%
Mean % crop injury (AAD12 Soybean (GLXMA); 3 DAA, 1065 g ae/ha): 0.3%
Mean % crop chlorosis (AAD12 Soybean (GLXMA); 3 DAA, 2130 g ae/ha): 0.0% and 1.3% and 0.8% and 0.5%
Mean % crop injury (AAD12 Soybean (GLXMA); 3 DAA, 2130 g ae/ha): 0.3%
Mean % crop chlorosis (AAD12 Soybean (GLXMA); 4 DAA, 1065 g ae/ha): 0.0%
Mean % crop injury (AAD12 Soybean (GLXMA); 4 DAA, 1065 g ae/ha): 0.0%
Mean % crop chlorosis (AAD12 Soybean (GLXMA); 4 DAA, 2130 g ae/ha): 0.0% and 0.7%
Mean % crop injury (AAD12 Soybean (GLXMA); 4 DAA, 2130 g ae/ha): 1.0%
Mean % crop injury (AAD12 Soybean (GLXMA); 6 DAA, 1065 g ae/ha): 4.0%
Mean % crop injury (AAD12 Soybean (GLXMA); 6 DAA, 2130 g ae/ha): 4.0%
Mean % crop chlorosis (AAD12 Soybean (GLXMA); 7 DAA, 1065 g ae/ha): 0.0%
Mean % crop chlorosis (AAD12 Soybean (GLXMA); 7 DAA, 2130 g ae/ha): 0.0% and 1.7% and 1.3% and 3.0%
Mean % crop growth inhibition (AAD12 Soybean (GLXMA); 7 DAA, 2130 g ae/ha): 1%
Mean % crop injury (AAD12 Soybean (GLXMA); 7 DAA, 2130 g ae/ha): 4.0% and 13.3%
Mean % crop chlorosis (AAD12 Soybean (GLXMA); 8 DAA, 1065 g ae/ha): 0.0%
Mean % crop chlorosis (AAD12 Soybean (GLXMA); 8 DAA, 2130 g ae/ha): 0.0%
Mean % crop chlorosis (AAD12 Soybean (GLXMA); 9 DAA, 1065 g ae/ha): 0.0%
Mean % crop injury (AAD12 Soybean (GLXMA); 9 DAA, 1065 g ae/ha): 0.0%
Mean % crop chlorosis (AAD12 Soybean (GLXMA); 9 DAA, 2130 g ae/ha): 0.0%
Mean % crop injury (AAD12 Soybean (GLXMA); 9 DAA, 2130 g ae/ha): 0.0%
Mean % crop chlorosis (AAD12 Soybean (GLXMA); 13 DAA, 1065 g ae/ha): 0.0%
Mean % crop injury (AAD12 Soybean (GLXMA); 13 DAA, 1065 g ae/ha): 2.0%
Mean % crop chlorosis (AAD12 Soybean (GLXMA); 13 DAA, 2130 g ae/ha): 0.0%
Mean % crop injury (AAD12 Soybean (GLXMA); 13 DAA, 2130 g ae/ha): 3.3%
Mean % crop chlorosis (AAD12 Soybean (GLXMA); 14 DAA, 1065 g ae/ha): 0.0%
Mean % crop injury (AAD12 Soybean (GLXMA); 14 DAA, 1065 g ae/ha): 3.0% and 0.0%
Mean % crop chlorosis (AAD12 Soybean (GLXMA); 14 DAA, 2130 g ae/ha): 0.0% and 0.8% and 1.3%
Mean % crop growth inhibition (AAD12 Soybean (GLXMA); 14 DAA, 2130 g ae/ha): 0%
Mean % crop injury (AAD12 Soybean (GLXMA); 14 DAA, 2130 g ae/ha): 2.3%
Mean % crop chlorosis (AAD12 Soybean (GLXMA); 15 DAA, 2130 g ae/ha): 0.0%
Mean % crop growth inhibition (AAD12 Soybean (GLXMA); 15 DAA, 2130 g ae/ha): 0%
Mean % crop injury (AAD12 Soybean (GLXMA); 15 DAA, 2130 g ae/ha): 0.0%
Mean % weed control ([3]; 8 DAA, 800 g ae/ha): 32.5%
Mean % weed control ([3]; 16 DAA, 800 g ae/ha): 42.5%
Mean % weed control ([3]; 23 DAA, 800 g ae/ha): 38.8%
Mean % weed control ([4]; 7 DAA, 1065 g ae/ha): 40.0%
Mean % weed control ([4]; 13 DAA, 1065 g ae/ha): 40.0%
Mean % weed control ([4]; 22 DAA, 1065 g ae/ha): 40.0%
Mean % weed control ([4]; 28 DAA, 1065 g ae/ha): 30.0%

CP(=O)(O)CCC(N)C(=O)O (stereo not shown) [Glufosinate-ammonium, ammonium (3-amino-3-carboxypropyl)(methyl)phosphinate]
Mean % weed control ([1]; 7 DAA, 542 g ae/ha): 80.0%
Mean % weed control ([1]; 10 DAA, 542 g ae/ha): 54.3%
Mean % weed control ([1]; 13 DAA, 542 g ae/ha): 75.0%
Mean % weed control ([1]; 16 DAA, 542 g ae/ha): 65.0%
Mean % weed control ([1]; 21 DAA, 542 g ae/ha): 51.3%
Mean % weed control ([1]; 22 DAA, 542 g ae/ha): 56.3%
Mean % weed control ([2]; 14 DAA, 542 g ae/ha): 12.5%
Mean % weed control ([2]; 21 DAA, 542 g ae/ha): 6.3%
Mean % weed control ([3]; 8 DAA, 542 g ae/ha): 73.8%
Mean % weed control ([3]; 16 DAA, 542 g ae/ha): 78.8%
Mean % weed control ([3]; 23 DAA, 542 g ae/ha): 65.0%
Mean % weed control ([4]; 7 DAA, 542 g ae/ha): 75.0%
Mean % weed control ([4]; 13 DAA, 542 g ae/ha): 85.0%
Mean % weed control ([4]; 22 DAA, 542 g ae/ha): 80.0%
Mean % weed control ([4]; 28 DAA, 542 g ae/ha): 98.0%
